Reference: PMC6133092, “Synthesis of 2-alkylthio-N-(quinazolin-2-yl)benzenesulfonamide derivatives: anticancer activity, QSAR studies, and metabolic stability” (Monatshefte Fur Chemie, 2018)

Assays:
Format in all cases: cell-based
[1] = test system: HaCaT; test: Cytotoxic effect against non-carcinogenic cell line HaCaT; settings: for IC50: Homo sapiens, HaCaT, non-carcinogenic cell line, mean ± SD; for activity against HCT-116 fold higher compared with HaCaT: selectivity HCT-116 vs HaCaT; for inhibition of growth of HaCaT cells fold weaker than HeLa cells: selectivity HeLa vs HaCaT
Description: For the compounds with the strongest cytotoxicity (12, 18, 22, and 24), an investigation of cytotoxic effect against non-carcinogenic cell line HaCaT was done. […] The activity against HCT-116 was 1.7-, 1.6-, 1.5-, and 1.4-fold higher when compared with HaCaT cell line, for compounds 12, 18, 22, and 24, respectively.
Cell viability was determined using the MTT (3-(4,5-dimethylthiazol-2-yl)-2,5-diphenyltetrazolium bromide) assay. Cells were seeded in 96-well plates at a density of 5 × 10^3 cells/well and treated for 72 h with the examined compounds in the concentration range 1–100 μM (1, 10, 25, 50, and 100 μM). Following treatment, MTT (0.5 mg/cm^3) was added to the medium and cells were further incubated for 2 h at 37 °C. Cells were lysed with DMSO and the absorbance of the formazan solution was measured at 550 nm with a plate reader (Victor, 1420 multilabel counter). […] The experiment was performed in triplicate. Values are expressed as the mean ± SD of at least three independent experiments.

[2] = test system: MOLT-4; test: NCI-60 single dose screen, MOLT-4; settings: Homo sapiens, Leukemia, single concentration 10^−5 M, read-out: IGP (inhibition growth percent) MOLT-4
Description: (§1) Aside from above, compounds 9–14 and 17–24 were also submitted to National Cancer Institute and evaluated for the cytotoxic effects toward 60 cell lines at a single dose of 10 μM (Table 2). […] As it was summarized in Table 2, leukemia RPMI-8226 and NSCLC A549/ATCC were most sensitive to compounds 18, 22, and 24. These derivatives in 10 μM concentration inhibited the growth of approximately 50% cells belonging to the above mention cell lines.
(§2) Cytotoxicity evaluation of compounds 9–14 and 17–24 was performed at the National Cancer Institute according to NCI-60 DTP human tumor cell line screen procedure.

[3] = test system: RPMI-8226; test: NCI-60 single dose screen, RPMI-8226; settings: Homo sapiens, RPMI-8226, Leukemia; single concentration 10^−5 M; read-out: IGP (inhibition growth percent) RPMI-8226
Description: as §1, §2

[4] = test system: EKVX; test: NCI-60 single dose screen, EKVX; settings: Homo sapiens, NSCLC, single concentration 10^−5 M, read-out: IGP (inhibition growth percent) EKVX
Description: as §1, §2

[5] = test system: HCT-116; test: NCI-60 single dose screen, HCT-116; settings: Homo sapiens, Colon cancer, single concentration 10^−5 M, read-out: IGP (inhibition growth percent) HCT-116
Description: as §1, §2

[6] = test system: UO-31; test: NCI-60 single dose screen, UO-31; settings: Homo sapiens, Renal cancer, single concentration 10^−5 M, read-out: IGP (inhibition growth percent) UO-31
Description: as §1, §2

[7] = test system: PC-3; test: NCI-60 single dose screen, PC-3; settings: Homo sapiens, Prostate cancer, single concentration 10^−5 M, read-out: IGP (inhibition growth percent) PC-3
Description: as §1, §2

| SMILES | IC50 [1] [µM] | activity against HCT-116 fold higher compared with HaCaT [1] [fold] | inhibition of growth of HaCaT cells fold weaker than HeLa cells [1] [fold] | inhibition at 10 µM [2] [%] | inhibition at 10 µM [3] [%] | inhibition at 10 µM [4] [%] | inhibition at 10 µM [5] [%] | inhibition at 10 µM [6] [%] | inhibition at 10 µM [7] [%] |
| --- | --- | --- | --- | --- | --- | --- | --- | --- | --- |
| O=C(Nc1ccccc1)c1cc(S(=O)(=O)Nc2nc(-c3ccccc3)c3ccccc3n2)c(SCc2ccccc2)cc1Cl [Compound 18, 2-Benzylthio-4-chloro-5-phenylcarbamoyl-N-(4-phenylquinazolin-2-yl)benzenesulfonamide] | 68 ± 2 | 1.6 | 1.5 | 36 | ~50 | 35 | 31 | 3 | 24 |
| O=C(Nc1ccc(Cl)cc1)c1cc(S(=O)(=O)Nc2nc(-c3ccccc3)c3ccccc3n2)c(SCc2ccccc2)cc1Cl [Compound 22, 2-Benzylthio-4-chloro-5-(4-chlorophenylcarbamoyl)-N-(4-phenylquinazolin-2-yl)benzenesulfonamide] | 59 ± 1 | 1.5 | 1.4 | 52 | ~50 | 28 | 39 | 35 | 44 |
| Cc1ccc(NC(=O)c2cc(S(=O)(=O)Nc3nc(-c4ccccc4)c4ccccc4n3)c(SCc3ccccc3)cc2Cl)cc1 [Compound 24, 2-Benzylthio-4-chloro-5-(4-methylphenylcarbamoyl)-N-(4-phenylquinazolin-2-yl)benzenesulfonamide] | 58 ± 1 | 1.4 | 1.3 | 21 | ~50 | 45 | 44 | 25 | 49 |
